According to patent US10294234B2, “HIV inhibitor compounds” (priority 2017, dated 2019):

What was measured:
in vivo = settings: rat, in vivo
How it was run: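 Male SD rats (n=3/group, 0.27–0.32 kg), fasted overnight, given 0.5 or 1.0 mg/kg by 30-min IV infusion, or by oral gavage. Serial plasma samples (EDTA-K2) over 24 h measured by LC/MS/MS; non-compartmental PK analysis.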

[1] = system: HIV-1 (IIIB) in MT-4 cells; assay: MT-4 HIV assay; format: cell-based; settings: Human immunodeficiency virus 1, MT4, 120 h; HIV-1 (IIIB), MT-4 cells, 5 days, Cell Titer Glo; read-out: EC50
How it was run: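 Antiviral activity was read by Cell Titer Glo after a 5-day, 37 °C culture of MT-4 cells pre-infected with a 1:250 dilution of HIV-1 (IIIB). Compounds were tested as threefold dilution series in complete RPMI. Controls were no drug, mock infection and 5 uM AZT.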

[2] = system: HIV-1 (IIIB) in MT-4 cells; assay: Protein adjusted EC95 (high resolution antiviral assay with equilibrium dialysis plasma protein binding); format: cell-based; settings: EC95 adjusted for plasma protein binding (10% plasma vs cell culture media)
Procedure: (§1) MT-4 HIV High Resolution Antiviral Assay
(§2) Assay protocol is identical to that described for the MT-4 antiviral assay with the following changes: Each drug is run in 2 series of quadruplicates with different starting concentrations for each series and 19 1.5 fold dilutions performed across the plate. […] Data is analyzed and Hill coefficients determined in Graph Pad Prism (San Diego, Calif.). EC95s were determined by the formula EC95=(19)^I/hill coefficient×EC50. HD values were determined for certain compounds and reported in Table 5 below as an illustrative example.
Equilibrium Dialysis Assay
Pooled plasma (from at least 3 males and 3 females) was from Bioreclamation IVT. Sodium EDTA was used as the anticoagulant. 10% plasma was diluted in 0.133M phosphate buffer consisted of 1.5% (w/v) Sodium EDTA.
RPMI cell culture media consisted 10% FBS was provided by biology department, Gilead Sciences, Inc.
Plasma Protein Binding Assay:
Studies were conducted in duplicate or triplicate using a Dianorm Equilibrium Dialyser (Harvard Apparatus, Holliston Mass.) with each cell consisting of a semipermeable membrane (2.4 cm working diameter) separating two 1 mL PTFE half-cells (Weder HG, Schildknecht J, Kesselring P. A new equilibrium dialyzing system. American Laboratory. 1971; 10: 15-21). Prior to the study, the dialysis membrane was soaked for approximately one hour in 0.133 M phosphate buffer, pH 7.4. 10% plasma and cell culture media spiked with 1 μM compound (1 mL) were placed into opposite sides of the assembled dialysis cells and the dialysis cells were then rotated slowly in a 37° C. water bath. After the equilibration period, matrix-containing samples from both sides were drained into pre-weighed polypropylene tubes. Post-dialysis 10% plasma samples were transferred into centrifuge tubes containing 1 mL of blank cell culture media. Post-dialysis cell culture media samples were transferred into centrifuge tubes containing 1 mL of blank 10% plasma. All samples weights were measured and recorded for calculations of volume shift and recovery. […]

[3] = 3H Human Predicted Clearance Assay (tritiated analogs); format: in vitro ADME; set-up: unit not given here; settings: tritiated analogs, human liver microsomes
Procedure: 3H Human Predicted Clearance Assay:
For certain compounds, tritiated analogs (H^3) were prepared to further determined their human predicted clearance with increased resolution. Those studies were performed as described above using the tritiated analogs. Data from those compounds is found in Table 2 below and reported in FIG. 1 (note ATV and DRV were not tritiated).

[4] = system: HIV-1 (IIIB) in MT-4 cells; assay: MT-4 HIV High Resolution Antiviral Assay; format: cell-based
Procedure: Compounds were tested in a high-throughput 384-well assay format for their ability to inhibit the replication of HIV-1 (IIIB) in MT-4 cells. Compounds were serially diluted (1:3) in DMSO on 384-well polypropylene plates and further diluted 200-fold into complete RPMI media (10% FBS, 1% P/S) using the Biotek Micro Flow and Agilent ECHO acoustic dispenser. Each plate contained up to 8 test compounds, with negative (No Drug Control) and 5 uM AZT positive controls. MT-4 cells were pre-infected with 10 uL of either RPMI (mock-infected) or a fresh 1:250 dilution of an HIV-1 (IIIB) concentrated virus stock. Infected and uninfected MT-4 cells were further diluted in complete RPMI media and added to each plate using a Micro Flow dispenser. After 5 days incubation in a humidified and temperature controlled incubator (37° C.), Cell Titer Glo (Promega) was added to the assay plates to quantify the amount of luciferase. EC50 and CC50 values were defined as the compound concentration that causes a 50% decrease in luminescence signal, and were calculated using a sigmoidal dose-response model to generate curve fits.
as §1, §2

For `COC(=O)N[C@H](C(=O)N[C@@H](Cc1ccc(C#Cc2ccc(N3CC4CCC(C3)N4C3COC3)nc2)cc1)[C@@H](O)CN(Cc1c(F)cc(-c2ccn(C(F)F)n2)cc1F)NC(=O)[C@@H](NC(=O)OC)C(C)(C)C(F)(F)F)C(C)(C)C(F)(F)F` [Example 58, Methyl ((5S,8S,9S,14S)-11-(4-(1-(difluoromethyl)-1H-pyrazol-3-yl)-2,6-difluorobenzyl)-16,16,16-trifluoro-9-hydroxy-15,15-dimethyl-8-(4-((6-(8-(oxetan-3-yl)-3,8-diazabicyclo[3.2.1]octan-3-yl)pyridin-3-yl)ethynyl)benzyl)-3,6,13-trioxo-5-(1,1,1-trifluoro-2-methylpropan-2-yl)-2-oxa-4,7,11,12-tetraazahexadecan-14-yl)carbamate], the Vd (in vivo; male, SD, iv) was 6.68 L/kg, the “RAT PO F” value (in vivo; male, SD, po, 2.5 mg/kg) was 37.2% and the “RAT IV CL” value (in vivo; iv) was 8 mL/min/kg. For the same molecule, the “RAT IV T1/2” value (in vivo; iv) was 12.8 h, the EC50 [1] was 4.79 nM and the “Protein Adjusted EC95” value [2] was 353 nM. The “3H Human Predicted Cl.” value [3] was 0.05, the EC50 ([4]; Human immunodeficiency virus 1, IIIB, MT4, high resolution assay, 40 data points, MT-4 cells, read-out: EC50) was 6.8 nM and the EC95 ([4]; calculated from Hill coefficient and EC50) was 11.4 nM. For the same molecule, the Hill-coefficient ([4]; high resolution assay, Graph Pad Prism) was 5.8.
